Source: paper PMC7311396, “Ultra-large chemical libraries for the discovery of high-affinity peptide binders” (Nature Communications, 2020)
Like-named read-outs stand apart in the source and are kept apart here. Non-standard residues stand in square brackets, D forms with d. Residues, ends and D or L forms follow the SMILES beside them. *: point of attachment. FITC = O=C1OC2(c3ccc(O)cc3Oc3cc(O)ccc32)c2ccc(NC(=S)*)cc21; Phe(4-NO2) = N[C@@H](Cc1ccc([N+](=O)[O-])cc1)C(=O)O; Ala(4-thiazolyl) = N[C@@H](Cc1cscn1)C(=O)O; β3hT = C[C@@H](O)[C@H](N)CC(=O)O; pS = N[C@@H](COP(=O)(O)O)C(=O)O; Aad = N[C@@H](CCCC(=O)O)C(=O)O; Cha = N[C@@H](CC1CCCCC1)C(=O)O; β3hS = N[C@@H](CO)CC(=O)O; Orn = NCCC[C@H](N)C(=O)O; Nva = CCC[C@H](N)C(=O)O; βAla = NCCC(=O)O

Assays:
14-3-3γ [1] = molecular target: T1, 14-3-3γ (Homo sapiens, UniProt P61981); assay: Direct fluorescence anisotropy binding assay
T1 construct: Full-length human 14-3-3γ was expressed by transforming pROEX HTb plasmid; His6; made in house; host or cells: Rosetta(DE3) Escherichia coli
T1 sequence (P61981 1-247): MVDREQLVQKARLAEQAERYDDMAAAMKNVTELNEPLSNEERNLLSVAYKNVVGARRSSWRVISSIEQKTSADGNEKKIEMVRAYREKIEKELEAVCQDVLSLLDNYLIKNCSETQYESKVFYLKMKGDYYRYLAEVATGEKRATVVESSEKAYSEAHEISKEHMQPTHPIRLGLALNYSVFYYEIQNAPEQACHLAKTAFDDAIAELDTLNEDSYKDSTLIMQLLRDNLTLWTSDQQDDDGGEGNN
Description: (§1) All direct fluorescence anisotropy affinity measurements were conducted in FA buffer (10 mM HEPES pH 7.4, 150 mM NaCl, 0.1% (v/v) Tween 20, 0.1% (w/v) BSA). A 1:1 dilution series of 14-3-3γ (starting at 100 μM) was performed in polystyrene non-binding low-volume Corning Black Round Bottom 384-well plates (Corning 4514) containing a fixed concentration FITC-labeled peptide (10 nM or 50 nM). Measurements were performed at ambient temperature using a Tecan Infinite F500 plate reader with the following parameters: λex: 485 (20) nm; λem: 535 (25) nm; mirror: Dichroic 510; flashes: 20; integration time: 50 μs; settle time; 0 μs; gain: manual 90; Z-position: calculated from well. The G-factor was set at 35 mP based on wells containing only the FITC-labeled peptide.
Fluorescence anisotropy binding assay of 14-3-3γ-binding peptides:
as §1, with “All” for “All direct”, “BSA). During each assay a” for “BSA). A”, “series” for “series of 14-3-3γ”, “μM) of 14-3-3γ” for “μM)”, “was made in wells containing a fixed concentration FITC-labeled peptide (10 nM or 50 nM). This was done” for “was performed”, “(Corning 4514).” for “(Corning 4514) containing a fixed concentration FITC-labeled peptide (10 nM or 50 nM).”

14-3-3γ [2] = molecular target: T1, 14-3-3γ; assay: Fluorescence anisotropy competition assay with FITC-labeled BiExoS; type: binding
Description: All fluorescence anisotropy competition experiments were conducted in FA buffer (10 mM HEPES pH 7.4, 150 mM NaCl, 0.1% (v/v) Tween-20, 0.1% (w/v) BSA). A 1:1 dilution series of unlabeled peptides (starting at 10 μM) were performed in wells containing a fixed concentration FITC-labeled biExoS (10 nM) and 14-3-3γ (20 nM). Measurements were performed at ambient temperature using a Tecan Infinite F500 plate reader with the following parameters: λex = 485 (20) nm; λem = 535 (25) nm, mirror: Dichroic = 510, flashes: 20; integration time: 50 μs; settle time: 0 μs; gain: manual 90; and Z-position: calculated from well. The G-factor was set at 35 mP based on wells containing only the FITC-labeled peptide.
Competition fluorescence anisotropy binding assay of 14-3-3γ-binding peptides:
All fluorescence anisotropy affinity measurements were conducted in FA buffer (10 mM HEPES pH 7.4, 150 mM NaCl, 0.1% (v/v) Tween-20, 0.1% (w/v) BSA). During each assay a 1:1 dilution series (starting at 10 μM) of unlabeled peptides were made in wells containing a fixed concentration FITC-labeled biExoS (10 nM; FITC-O1Pen- […]
[…](GGSGGGGSGG)[…]-CONH2)5, and 14-3-3γ (20 nM).
This is done in polystyrene non -binding low-volume Corning Black Round Bottom 384 - well plates (Corning 4514). Measurements were performed at ambient temperature using a Tecan Infinite F500 plate reader with the following parameters : λex = 485 (20) nm; λem = 535 (25) nm, mirror: Dichroic = 510, flashes: 20; integration time: 50 μs; settle time: 0 μs; gain: manual 90; and Z-position: calculated from well. The G-factor was set at 35 mP based on wells containing only the FITC-labeled peptide.

14-3-3σΔc = molecular target: T2, 14-3-3σΔc (Homo sapiens, UniProt P31947); assay: Direct fluorescence anisotropy binding validation with 14-3-3σΔc; conditions: 14-3-3σ
T2 construct: The 14-3-3σ isoform with a truncated C-terminus after T321; His6 (cleaved yes); made in house; host or cells: BL21(DE3) Escherichia coli
T2 sequence (P31947 1-231 limits assumed): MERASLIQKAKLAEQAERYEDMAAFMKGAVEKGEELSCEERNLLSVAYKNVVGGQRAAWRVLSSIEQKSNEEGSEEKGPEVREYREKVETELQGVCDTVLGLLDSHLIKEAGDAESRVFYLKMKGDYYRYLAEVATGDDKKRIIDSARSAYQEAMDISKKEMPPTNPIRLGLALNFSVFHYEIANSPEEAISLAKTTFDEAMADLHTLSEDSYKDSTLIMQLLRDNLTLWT

anti-HA mAb clone 12ca5 = assay: Competition fluorescence polarization of HA epitope and analogues; type: binding; conditions: for effect of mutation on affinity towards 12ca5: competition FP of HA epitope Ala scan mutants; for IC50: competition FP, 100 nM 12ca5, 28 nM YPYDVPDYAK(FITC)-CONH2, 1 mg/mL BSA, 0.02% Tween 20, 1x PBS, RT, read after 1 h; for Kd: from competition FP, 100 nM 12ca5, 28 nM FITC tracer
Description: Competition fluorescence polarization of HA epitope and analogues:
Solutions of unlabeled peptides (~1 mg/mL each; Supplementary Table 1) in 1x PBS was prepared in the presence of 100 nM 12ca5, 1 mg/mL BSA, 0.02% Tween 20 (120 μL). Fluorescent competitor was added (YPYDVPDYAK(FITC)α-CONH2; 28 nM).
The resulting solution was diluted serially (20 μL) into 100 nM 12ca5, 28 nM […]
YPYDVPDYAK(FITC)α-CONH2, 1 mg/mL BSA, 0.02% Tween 20 in 1x PBS (80 μL; […]
5-fold dilutions). The resulting solutions were transferred to a 96 well plate (Greiner Bio- […]
(RT), and read after 1 h on a Tecan Infinite M1000 plate reader (470 nm excitation; 517 nm detection; 5 nm bandwidth). The concentration of fluorescent […] was determined based on absorbance at 490 nm, using ε = 76,900 M-1cm-1.
Competition fluorescence polarization of HA epitope Ala scan mutants:
Competition fluorescence polarization experiments were carried out as described in Competition fluorescence polarization of HA epitope and analogues.

[3] = FITC-labeled peptide (10 or 50 nM), 14-3-3γ dilution from 100 μM, FA buffer pH 7.4, ambient temperature, ± 95% confidence interval, read-out: KD

Compound: CC(C)C[C@@H](N)C(=O)N[C@@H](Cc1ccc([N+](=O)[O-])cc1)C(=O)N[C@@H](CO)CC(=O)N[C@@H](Cc1ccc([N+](=O)[O-])cc1)C(=O)N[C@@H](COP(=O)(O)O)C(=O)N[C@@H](Cc1ccc([N+](=O)[O-])cc1)C(=O)N[C@@H](CO)CC(=O)NCCC(=O)N[C@@H](Cc1ccc([N+](=O)[O-])cc1)C(=O)N[C@@H](CCCCN)C(N)=O [14-3-3.1] (H-[dL][Phe(4-NO2)][β3hS][Phe(4-NO2)][pS][Phe(4-NO2)][β3hS][βAla][Phe(4-NO2)]K-NH2)
- Kd (14-3-3γ [1]; KD, FITC-labeled peptide (10 or 50 nM), 14-3-3γ dilution from 100 μM, FA buffer pH 7.4, ambient temperature, ± 95% confidence interval): 5.7 ± 1 nM
- IC50 (14-3-3γ [2]): 465 ± 45 nM

Compound: NCCCC[C@H](NC(=O)[C@H](Cc1ccc([N+](=O)[O-])cc1)NC(=O)C[C@H](CO)NC(=O)C[C@H](CO)NC(=O)[C@H](Cc1ccc([N+](=O)[O-])cc1)NC(=O)[C@H](COP(=O)(O)O)NC(=O)[C@H](CCCN)NC(=O)C[C@H](CO)NC(=O)[C@H](CC1CCCCC1)NC(=O)[C@@H](N)CC1CCCCC1)C(N)=O [14-3-3.6] (H-[Cha][Cha][β3hS][Orn][pS][Phe(4-NO2)][β3hS][β3hS][Phe(4-NO2)]K-NH2; N-terminus and C-terminus assumed)
- Kd (14-3-3γ [1]; [3]): 3.1 ± 0.3 nM
- IC50 (14-3-3γ [2]; unlabeled peptide from 10 μM, 10 nM FITC-labeled biExoS, 20 nM 14-3-3γ, FA buffer pH 7.4, ambient temperature, read-out: IC50): 77 ± 8 nM

Compound: CCC[C@H](NC(=O)[C@H](N)CCCCN)C(=O)N[C@@H](Cc1ccc([N+](=O)[O-])cc1)C(=O)N[C@@H](Cc1cscn1)C(=O)N[C@@H](COP(=O)(O)O)C(=O)N[C@@H](Cc1ccc([N+](=O)[O-])cc1)C(=O)N[C@@H](CO)CC(=O)NCCC(=O)N[C@@H](Cc1ccc([N+](=O)[O-])cc1)C(=O)N[C@@H](CCCCN)C(=O)NCCC(=O)N[C@@H](CCCCNC(=S)Nc1ccc2c(c1)C(=O)OC21c2ccc(O)cc2Oc2cc(O)ccc21)C(N)=O [FITC-labeled 14-3-3.12] (H-[dK][Nva][Phe(4-NO2)][Ala(4-thiazolyl)][pS][Phe(4-NO2)][β3hS][βAla][Phe(4-NO2)]K[βAla]K(FITC)-NH2)
- Kd (14-3-3γ [1]; Kd, 14-3-3γ, 0 h after incubation): 19.5 nM
- Kd (14-3-3γ [1]; Kd, 14-3-3γ, 4 h after incubation): 19.4 nM
- Kd (14-3-3γ [1]; Kd, 14-3-3γ, 20 h after incubation): 21.9 nM
- Kd (14-3-3σΔc; 0 h after incubation): 229 nM
- Kd (14-3-3σΔc; 4 h after incubation): 169 nM
- Kd (14-3-3σΔc; 20 h after incubation): 102 nM

Compound: C[C@@H](O)[C@@H](CC(=O)N[C@@H](CCCCN)C(N)=O)NC(=O)[C@H](Cc1ccc([N+](=O)[O-])cc1)NC(=O)[C@H](Cc1cscn1)NC(=O)[C@H](CCCC(=O)O)NC(=O)[C@H](COP(=O)(O)O)NC(=O)[C@H](Cc1cscn1)NC(=O)[C@@H](CCC(N)=O)NC(=O)C[C@H](CO)NC(=O)[C@H](N)CCCCN [NB.1] (H-[dK][β3hS][dQ][Ala(4-thiazolyl)][pS][Aad][Ala(4-thiazolyl)][Phe(4-NO2)][β3hT]K-NH2; N-terminus and C-terminus assumed)
- Kd (14-3-3γ [1]; [3]): 64000 ± 20000 nM
- fold weaker binding than the 14-3-3γ-binding peptides (14-3-3γ [1]; fluorescence anisotropy, FITC-labeled peptides): ~ 10,000 fold
- inhibitory activity (competition with BiExoS) (14-3-3γ [2]; unlabeled peptide, 10 nM FITC-labeled biExoS, 20 nM 14-3-3γ): no inhibitory activity

Compound: CC(C)[C@H](NC(=O)[C@H](CC(=O)O)NC(=O)[C@H](Cc1ccc(O)cc1)NC(=O)[C@@H]1CCCN1C(=O)[C@@H](N)Cc1ccc(O)cc1)C(=O)N1CCC[C@H]1C(=O)N[C@@H](CC(=O)O)C(=O)N[C@@H](Cc1ccc(O)cc1)C(=O)NCC(N)=O [YPYDVPDYG] (H-YPYDVPDYG-NH2; N-terminus assumed)
- effect of mutation on affinity towards 12ca5 (anti-HA mAb clone 12ca5): deleterious but did not completely abolish binding
- IC50 (anti-HA mAb clone 12ca5): 3600 ± 1000 nM
- Kd (anti-HA mAb clone 12ca5): 170 ± 70 nM

Compound: NC(=O)[C@@H](Cc1c[nH]cn1)NC(=O)[C@H]1CCCN1C(=O)[C@@H](CCC(=O)O)NC(=O)[C@@H](CC(=O)O)NC(=O)[C@@H](Cc1ccccc1)NC(=O)[C@@H](CCC(=O)O)NC(=O)[C@@H](Cc1ccc(O)cc1)NC(=O)[C@H]1CCCN1C(=O)[C@H](N)Cc1ccc(O)cc1 [ypyefdeph, reference compound] (H-[dY][dP][dY][dE][dF][dD][dE][dP][dH]-NH2)
- IC50 (anti-HA mAb clone 12ca5): 380000 ± 25000 nM
- Kd (anti-HA mAb clone 12ca5): 18000 ± 4000 nM

Compound: YPYAVPDYAα-CONH2
- effect of mutation on affinity towards 12ca5 (anti-HA mAb clone 12ca5): deleterious but did not completely abolish binding

Compound: YPYDVPAYAα-CONH2
- effect of mutation on affinity towards 12ca5 (anti-HA mAb clone 12ca5): completed abrogated affinity

Compound: YPYDVPDAAα-CONH2
- effect of mutation on affinity towards 12ca5 (anti-HA mAb clone 12ca5): completed abrogated affinity
